The values that follow come from patent US11654136B2, “Phosphoinositide 3-kinase inhibitor with a zinc binding moiety” (Curis, Inc., priority 2011, dated 2023).

Data set [1] concerns OPM2 (multiple myeloma tumor cell line) xenograft tumors. Description: OPM2 xenograft tumor model. It counts as in vivo, nude mice. As to conditions: oral 50 mg/kg twice a day, five days per week. The procedure:
SU-DHL4 (diffuse large B-cell lymphoma cell line), H2122 (human NSCLC cell line), Daudi (non-Hodgkin's lymphoma cell line), and OPM2 (multiple myeloma tumor cell line) cells were implanted into either nude or Scid (severe […] immune-deficient) mice. […]. […] The control groups were treated with vehicle using the same dosing schedule as the corresponding active group.
In another study, the Daudi tumor group was dosed at 50 mg/Kg twice a day for five days per week. […] The SU-DHL4 tumor group was dosed at 100 mg/Kg orally or 50 mg/Kg intravenously.
Tumors were measured during the study period with an electronic caliper, and body weights were measured twice a week. The following formula was used to calculate the tumor volume: […] Percentage of tumor volume change was used to describe compound activity over the treatment period.

Another data set has as its system MM1S subcutaneous tumor. Description: MM1S xenograft model. It counts as in vivo, SCID/Beige mice. Particulars: oral gavage five times per week. The method, then: Female SCID/Beige mice at age 4 weeks were housed in ventilated micro-isolator cages (INNOCAGE®IVC, Innovive Inc., San Diego, Calif.) in a controlled climate, fed with sterile high-fat diet (Problab-RMH 2000) ad libitum and provided with sterilized water. All housing and supplies for SCID/Beige mice were sterilized by autoclaving before use. Mice were inspected daily including weekends/holidays by trained animal facility personnel and investigators. All animal procedures were performed under sterile conditions within a biosafety cabinet (for injections) or laminar flow hood (for animal husbandry and non-invasive procedures).
MM1S human […] cells (Gold-Leikin R E, et al., J Lab Clin Invest. 1980; 113:335-345) were originally obtained from peripheral blood of a multiple myeloma patient. Cryopreserved cells were thawed in a 37° C. water bath and cultured in RPMI medium plus 10% Fetal Bovine Serum (FBS) in a tissue culture incubator at 5% CO2. Cells were sent to outside vendors for contaminants and rodent pathogen screening intended to rule out contamination by mycoplasma (by PCR) and/or virus (by MAP test, Mouse Antibody Production). […] The implanted mice were monitored for general health and tumor development daily.
Tumors were detectable about two weeks following implantation. Tumor size was measured with a caliper. […]
During each animal study, tumors were measured with calipers, tumor size determined using the above mentioned formula, and tumor size changes in percentage calculated. Mouse body weights were measured with a scale twice per week. […] In addition to the determination of tumor size changes, the last tumor measurement was used to generate the tumor weight change ratio (T/C value), a standard metric developed by the National Cancer Institute (NCI) for xenograft tumor evaluation T/C values were calculated using the following formula: % T/C=100×ΔT/ΔC if ΔT>0. […]
The treatment period was 15 days. Tumor sizes and body weights were measured again on the last day of the study.

The subject of another data set is T and B lymphocytes. Description: Effect on circulating and lymphoid organ lymphocytes. It counts as in vivo, CD1 wild type mice. As to conditions: 100 mg/kg orally for five consecutive days. The method, then: Another 5 mice were treated with vehicle. Blood was collected at various time points (including pre-dosing, during dosing and post-dosing) from the mandibular vein. Blood was analyzed with a flow cytometer for T and B cell quantification.
The animals were sacrificed, and the lymphoid organs were collected. Cells were physically dissociated from the tissues and analyzed with a flow cytometer. Anti-CD3 and -CD19 antibodies were used to stain T and B cells, respectively.

Data set [2] deals with HDAC activity (Ac-H3, Ac-Tub, Ac-p53, p53, p21) in H460 cells. Description: Western blot / in-cell-western of HDAC markers in H460 cells. It counts as cell-based. The method, then: (§1) Cell extracts were prepared in the presence of SDS and 2-mercaptoethanol and resolved in polyacrylamide gels. Proteins were transferred to nitrocellulose filter and blotting was done using standard procedures with blocking solutions (Li-Cor Bioscience) containing the indicated primary antibody. Primary antibodies against p-EGFR, EGFR, p-HER2, HER2, p-HER3, HER3, p-MET, MET, p-bRaf, p-cRaf, pMEK, MEK, p-ERK, ERK and tubulin were purchased from Cell Signaling Technology. Secondary antibody conjugated with IRdye 680, 800CW were used and the signal was detected with Li-Cor Odyssey Imager.
Immunocytochemistry was performed on cells grown in monolayer culture that were treated as indicated in the figure legends and then fixed in 4% (w/v) paraformaldehyde. After washing in 1×PBS, immunostaining was performed in Li-Cor blocking solution containing the indicated primary antibodies and IRDye 680- or 800CW-conjugated secondary antibodies. For in-cell-western, a Li-Cor Odyssey infrared imager was used for detection and quantification of results.
Cells were treated with DMSO alone (vehicle control) or containing test compounds for 1 h before Western blot or in-cell-western was performed.

The test system of the next data set is Raf, MEK, and ERK. Description: Western blot of RAF-MEK-ERK pathway in H460, A375, BT-474 and H1975 cells. Particulars: 100 nM, 16 hours. It counts as cell-based. The procedure: as §1
One major limitation of PI3K inhibitors in the treatment of cancers is the activation of the RAF-MEK-ERK pathway. HDAC inhibitors are able to inhibit kinase levels in this signaling pathway in cancer cells via epigenetic modification.
On the technique in general: In western blotting, separated proteins are transferred to a membrane and probed.

For data set [3], the system named is p-STAT3 (Y-705) and p-Src. Briefly: Western blot in RPMI-8226 myeloma cells. It counts as cell-based. As to conditions: 1 μM, 16 h.
The test system of a further data set is glioblastoma xenografts. As to conditions: oral dosage; Folkes et al. 2008; cited from earlier work.

On to `COc1ccc(-c2nc(N3CCOCC3)c3sc(CN(C)c4ncc(C(=O)NO)cn4)cc3n2)cn1` [Compound 1, N-hydroxy-2-(((2-(6-methoxypyridin-3-yl)-4-morpholinothieno[3,2-d]pyrimidin-6-yl)methyl)(methyl)amino)pyrimidine-5-carboxamide], for which the Tumor growth result in data set [1] was “efficacious”. The compound also showed a T/C value in the data set on MM1S subcutaneous tumor (day 14, p<0.0001) of 27.37%. For the same compound, in the data set with MM1S subcutaneous tumor (single agent, 15 days), the “Body weight and side effects” value was “No body weight loss or other side effects were observed”; the Tumor growth result was “inhibited tumor growth”. The “Blood levels of T and B lymphocytes” value in the data set on T and B lymphocytes (blood) was “significant reversible reduction in the blood levels of both T and B lymphocytes”. For the same compound, the “T and B lymphocyte levels in spleen and lymph nodes” value with T and B lymphocytes (spleen and lymph nodes) was “significant reduction in both T and B lymphocytes”. Further, in data set [2], the “Levels of acetylated-tubulin, histone 3, p53 and p21 versus dose” value is “increases levels of acetylated-tubulin (FIG. 7B), acetylated histone 3 (FIG. 7C), acetylated p53 (FIG. 7D), and acetylated p21 (FIG. 7E) in a dose-dependent manner”; the “Total p53 and p21 content” value was “upregulates total p53 and p21 content”. In data set [2] (1 μmon, 1 h), the “Levels of acetylated histone 3, tubulin and p53” value is “increases the levels of acetylated histone 3 (Ac-H3), tubulin (Ac-Tub), and p53 (Ac-p53)”. Further, in the data set on Raf, MEK, and ERK, the “Activation of Raf, MEK, and ERK” value was “suppressed activation of Raf, MEK, and ERK”. For the same compound, the “p-STAT3 (Y-705) and p-Src” value in data set [3] is “inhibited p-STAT3 (Y-705) and p-Src”.

`CS(=O)(=O)N1CCN(Cc2cc3nc(-c4cccc5[nH]ncc45)nc(N4CCOCC4)c3s2)CC1` [GDC-0941, reference compound]: the Tumor suppression result with glioblastoma xenografts is “tumor suppression”.
